Test results published in BindingDB's records for doi:10.1021/acsmedchemlett.0c00047 (Centre of Experimental Medicine, 2020).

Assay: Inhibition of SERCA1 in rat INS-1E cells assessed as reduction in cell viability incubated for 24 hrs by MTT assay

| SMILES | IC50 [µM] |
| --- | --- |
| Cc1cc2c3c(c1)-c1c(O)cc(-c4cc5ccc(O)cc5o4)cc1O[C@@]3(c1ccc(O)cc1O)Oc1cc(O)ccc1-2 | 18.2 |
| CC1(C)Oc2cc3oc(-c4cc(O)cc(O)c4)cc3cc2CC1O (stereo not given) [Moracin P] | 109 |
| COc1cc(O)c([C@@H]2CC(=O)c3c(O)cc(O)cc3O2)cc1C/C=C(\C)CCC=C(C)C | 64.8 |
| CC(C)=CCc1c(-c2ccc(O)cc2O)oc2c3c(cc(O)c2c1=O)OC(C)(C)C=C3 [Morusin, 3] | 28.7 |
| CC(C)(O)C1Cc2cc3cc(-c4cc(O)cc(O)c4)oc3cc2O1 (stereo not given) [moracin O] | 111 |
